13 compounds from ChEMBL document CHEMBL1909046, “DrugMatrix in vitro pharmacology data” can be followed below.

Assay [1] concerns the target Beta-3 adrenergic receptor (Homo sapiens, UniProt P13945). Briefly: DRUGMATRIX: Adrenergic beta3 radioligand binding (ligand: [125I] Cyanopindolol). The assay is classed as cell membranes, HEK293, Membrane. The note with it: hek293; Not Active = under 50% inhibition at 10 µM.
The nature of assay [2]: DRUGMATRIX: beta-Lactamase enzyme inhibition (substrate: Nitrocefin). Details: species or system Bacillus cereus. The note with it: Not Active = under 50% inhibition at 10 µM.
Assay [3] in a line: DRUGMATRIX: Imidazoline I2, Central radioligand binding (ligand: [3H] Idazoxan). The assay is classed as cell membranes, Rattus norvegicus, Wistar, Cerebral cortex, Membrane. The note with it: Not Active = under 50% inhibition at 10 µM.
Assay [4] can be described thus: DRUGMATRIX: Interleukin IL-1 radioligand binding (ligand: [125I] interleukin 1beta). The assay is classed as cell membranes, Membrane. To be noted: nih3t3; Not Active = under 50% inhibition at 10 µM.
Another assay has as its target T1, Progesterone receptor (Bos taurus, UniProt Q690N0).
T1 sequence (Q690N0 whole entry): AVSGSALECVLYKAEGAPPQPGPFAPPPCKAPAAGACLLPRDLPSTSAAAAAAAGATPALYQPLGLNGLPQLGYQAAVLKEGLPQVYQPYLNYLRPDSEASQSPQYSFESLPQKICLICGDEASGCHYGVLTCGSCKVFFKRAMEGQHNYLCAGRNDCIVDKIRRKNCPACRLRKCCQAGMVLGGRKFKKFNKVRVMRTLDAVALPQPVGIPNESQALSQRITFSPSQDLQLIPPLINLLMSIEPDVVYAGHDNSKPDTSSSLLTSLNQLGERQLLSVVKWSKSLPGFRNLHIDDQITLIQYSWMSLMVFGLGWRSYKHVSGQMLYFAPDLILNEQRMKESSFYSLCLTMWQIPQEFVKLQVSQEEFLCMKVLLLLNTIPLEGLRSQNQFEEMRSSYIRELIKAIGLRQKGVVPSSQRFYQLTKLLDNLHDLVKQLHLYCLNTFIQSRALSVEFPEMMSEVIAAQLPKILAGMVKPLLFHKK
The assay can be described thus: DRUGMATRIX: Progesterone radioligand binding (ligand: [3H] R-5020). Type of assay: tissue-based, Uterus. The note with it: Not Active = under 50% inhibition at 10 µM.

The target in assay [5] is T2, Receptor-type tyrosine-protein phosphatase C (Homo sapiens, UniProt P08575).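 Further: inhibition of CD45 enzyme activity measured using DiFMUP as substrate; in other assays of this panel Not Active means under 50% inhibition at 10 µM.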
T2 sequence (P08575 whole entry): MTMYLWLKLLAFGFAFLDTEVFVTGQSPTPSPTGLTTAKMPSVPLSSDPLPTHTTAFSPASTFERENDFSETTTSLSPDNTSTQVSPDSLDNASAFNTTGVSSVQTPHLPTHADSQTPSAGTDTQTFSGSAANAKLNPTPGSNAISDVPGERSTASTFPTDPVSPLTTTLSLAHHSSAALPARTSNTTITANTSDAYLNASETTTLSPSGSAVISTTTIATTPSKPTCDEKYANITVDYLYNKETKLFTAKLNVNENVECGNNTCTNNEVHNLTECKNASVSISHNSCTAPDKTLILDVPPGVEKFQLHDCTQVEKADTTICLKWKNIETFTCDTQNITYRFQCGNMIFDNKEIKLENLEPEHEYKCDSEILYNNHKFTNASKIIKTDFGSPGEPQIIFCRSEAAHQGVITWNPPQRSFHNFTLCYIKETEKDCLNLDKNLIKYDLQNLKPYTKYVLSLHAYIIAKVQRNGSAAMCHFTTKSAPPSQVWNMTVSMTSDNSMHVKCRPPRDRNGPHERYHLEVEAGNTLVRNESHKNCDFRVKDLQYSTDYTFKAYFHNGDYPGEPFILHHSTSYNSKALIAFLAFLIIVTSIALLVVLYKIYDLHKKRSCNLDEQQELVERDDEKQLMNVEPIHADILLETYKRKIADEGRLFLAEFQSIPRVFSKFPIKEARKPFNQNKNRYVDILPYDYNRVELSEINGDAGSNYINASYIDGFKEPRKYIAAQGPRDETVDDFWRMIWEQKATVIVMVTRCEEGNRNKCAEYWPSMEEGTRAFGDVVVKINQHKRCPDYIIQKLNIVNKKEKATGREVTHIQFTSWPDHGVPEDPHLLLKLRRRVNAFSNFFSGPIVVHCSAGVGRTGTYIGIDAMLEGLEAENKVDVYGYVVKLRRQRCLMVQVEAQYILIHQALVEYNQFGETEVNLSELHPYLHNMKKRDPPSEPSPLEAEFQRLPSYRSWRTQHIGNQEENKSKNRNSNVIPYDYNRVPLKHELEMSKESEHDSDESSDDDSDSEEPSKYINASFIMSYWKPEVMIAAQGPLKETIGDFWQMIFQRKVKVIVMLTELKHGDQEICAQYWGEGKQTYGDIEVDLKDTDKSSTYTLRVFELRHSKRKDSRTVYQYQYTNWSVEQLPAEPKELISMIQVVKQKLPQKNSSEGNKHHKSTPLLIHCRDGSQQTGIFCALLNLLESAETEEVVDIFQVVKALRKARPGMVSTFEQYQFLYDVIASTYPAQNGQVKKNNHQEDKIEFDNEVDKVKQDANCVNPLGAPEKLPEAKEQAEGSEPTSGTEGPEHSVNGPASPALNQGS
Details: species or system Escherichia coli.

Assay [6] in a line: DRUGMATRIX: Purinergic P2X radioligand binding (ligand: [3H] alpha, beta-Methylene-ATP). Type of assay: cell membranes, Oryctolagus cuniculus, New Zealand albino, Urinary bladder, Membrane. To be noted: Not Active = under 50% inhibition at 10 µM.

Sequence of Beta-3 adrenergic receptor (P13945 whole entry): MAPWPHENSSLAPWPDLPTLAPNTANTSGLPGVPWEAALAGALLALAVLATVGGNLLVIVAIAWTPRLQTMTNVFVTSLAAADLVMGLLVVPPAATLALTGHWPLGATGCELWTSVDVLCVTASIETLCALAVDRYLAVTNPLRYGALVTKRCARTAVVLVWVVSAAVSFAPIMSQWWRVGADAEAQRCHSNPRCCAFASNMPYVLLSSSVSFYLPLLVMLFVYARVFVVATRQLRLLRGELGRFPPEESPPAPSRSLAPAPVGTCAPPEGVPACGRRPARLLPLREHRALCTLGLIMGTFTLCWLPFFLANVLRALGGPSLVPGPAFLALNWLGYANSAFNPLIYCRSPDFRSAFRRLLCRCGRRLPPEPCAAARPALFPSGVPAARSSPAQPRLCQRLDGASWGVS

In the case of `Cn1ccnc1S` [METHIMAZOLE], the IC50 result (in assay [1]; in assay [2]; in assay [3]; in assay [4]; at Progesterone receptor; in assay [5]) was “Not Active” in each case. In addition, the IC50 entry in assay [6] is “Not Active”. Also, the Ki entry in assay [2], in assay [3], in assay [4] and in assay [6] was “Not Active” throughout.

Take `N[C@@H]1[C@H]2CN(c3nc4c(cc3F)c(=O)c(C(=O)O)cn4-c3ccc(F)cc3F)C[C@@H]12` [TROVAFLOXACIN]: the IC50 result (in assay [1]; in assay [2]; in assay [3]; in assay [4]; at Progesterone receptor; in assay [5]) was “Not Active” in each case. Moreover, in assay [6], the half-maximal inhibitory concentration (IC50) result is “Not Active”. The Ki result in assay [2], in assay [3], in assay [4] and in assay [6] was “Not Active” throughout.

With `CC1(C)O[C@@H]2C[C@H]3[C@@H]4CCC5=CC(=O)C=C[C@]5(C)[C@@]4(F)[C@@H](O)C[C@]3(C)[C@]2(C(=O)CO)O1` [TRIAMCINOLONE ACETONIDE], the half-maximal inhibitory concentration (IC50) entry is “Not Active” in assay [1]; “Not Active” in assay [2]; “Not Active” in assay [3]; “Not Active” in assay [4]; 179 nM on Progesterone receptor (read-out: IC50); “Not Active” in assay [5]. Further, the 50% inhibitory concentration (IC50) entry in assay [6] was “Not Active”. Moreover, the inhibitory constant (Ki) result in assay [2] was “Not Active”; in assay [3] it was “Not Active”; in assay [4], “Not Active”; at Progesterone receptor (read-out: Ki) it was 23 nM; in assay [6], “Not Active”.

Turning to `NC[C@H]1CC[C@H](C(=O)O)CC1` [TRANEXAMIC ACID], the IC50 entry (in assay [1]; in assay [2]; in assay [3]; in assay [4]; at Progesterone receptor; in assay [5]) was “Not Active” each time. For the same compound, the IC50 result in assay [6] is reported as “Not Active”. Besides, the Ki result in assay [2], in assay [3], in assay [4] and in assay [6] was “Not Active” in each case.

In the case of `COc1c(C)c2c(c(O)c1C/C=C(\C)CCC(=O)O)C(=O)OC2` [MYCOPHENOLIC ACID], the concentration for half-maximal inhibition (IC50) entry (in assay [1]; in assay [2]; in assay [3]; in assay [4]; on Progesterone receptor; in assay [5]) was “Not Active” each time. In assay [6], the IC50 entry is reported as “Not Active”. Besides, the Ki result in assay [2], in assay [3], in assay [4] and in assay [6] was “Not Active” throughout.

With `N[C@@H](Cc1ccc(N(CCCl)CCCl)cc1)C(=O)O`, the IC50 result (in assay [1]; in assay [2]; in assay [3]; in assay [4]; at Progesterone receptor; in assay [5]) was “Not Active” throughout. For the same compound, the IC50 entry in assay [6] is “Not Active”. Moreover, the Ki entry in assay [2], in assay [3], in assay [4] and in assay [6] was “Not Active” throughout.

In the case of `CO[C@H]1/C=C/O[C@@]2(C)Oc3c(C)c(O)c4c(O)c(c(/C=N/N5CCN(C)CC5)c(O)c4c3C2=O)NC(=O)/C(C)=C\C=C\[C@H](C)[C@H](O)[C@@H](C)[C@@H](O)[C@@H](C)[C@H](OC(C)=O)[C@@H]1C` [RIFAMPIN], the IC50 entry (in assay [1]; in assay [2]; in assay [3]; in assay [4]; on Progesterone receptor; in assay [5]) was “Not Active” each time. The IC50 entry in assay [6] is “Not Active”. The Ki result in assay [2], in assay [3], in assay [4] and in assay [6] was “Not Active” in each case.

Turning to `O=NN(CCCl)C(=O)NC1CCCCC1` [LOMUSTINE], the IC50 result (in assay [1]; in assay [2]; in assay [3]; in assay [4]; at Progesterone receptor; in assay [5]) was “Not Active” throughout. Also, in assay [6], the IC50 result was “Not Active”. Besides, the Ki entry in assay [2], in assay [3], in assay [4] and in assay [6] was “Not Active” in each case.

Consider `CSc1ccc(/C=C2/C(C)=C(CC(=O)O)c3cc(F)ccc32)cc1` [SULINDAC SULFIDE], for which the IC50 result (in assay [1]; in assay [2]; in assay [3]; in assay [4]; on Progesterone receptor; in assay [5]) was “Not Active” each time. For the same compound, in assay [6], the IC50 entry is recorded as “Not Active”. For the same compound, the Ki result in assay [2], in assay [3], in assay [4] and in assay [6] was “Not Active” throughout.

On to `Nc1nc2ccc(OC(F)(F)F)cc2s1` [RILUZOLE], for which the IC50 entry (in assay [1]; in assay [2]; in assay [3]; in assay [4]; at Progesterone receptor; in assay [6]) was “Not Active” in each case. The Ki entry in assay [2], in assay [3], in assay [4], in assay [5] and in assay [6] was “Not Active” throughout.

SODIUM NITROPRUSSIDE: the IC50 entry (in assay [1]; in assay [2]; in assay [3]; in assay [4]; on Progesterone receptor; in assay [5]) was “Not Active” in each case. Besides, in assay [6], the IC50 entry is “Not Active”. In addition, the Ki result (in assay [1]; in assay [2]; in assay [3]; in assay [4]; at Progesterone receptor; in assay [5]) was “Not Active” in each case. Further, the Ki result in assay [6] is reported as “Not Active”.

Regarding `Cc1noc(NS(=O)(=O)c2ccc(N)cc2)c1C` [SULFISOXAZOLE], the IC50 result (in assay [1]; in assay [2]; in assay [3]; in assay [4]; on Progesterone receptor; in assay [5]) was “Not Active” in each case. Besides, the IC50 result in assay [6] is “Not Active”. Besides, the Ki result in assay [2], in assay [3], in assay [4] and in assay [6] was “Not Active” each time.

Turning to `Cc1cccc(N(C)C(=S)Oc2ccc3ccccc3c2)c1` [TOLNAFTATE], the IC50 result (in assay [1]; in assay [2]; in assay [3]; in assay [4]; at Progesterone receptor; in assay [5]) was “Not Active” throughout. Further, the IC50 result in assay [6] is on record as “Not Active”. Also, the Ki entry in assay [2], in assay [3], in assay [4] and in assay [6] was “Not Active” in each case.
